Experimental data as given in patent US20240165129A1, “METHODS OF TREATING PAIN AND DEPRESSION” (priority 2022, published 2024).
Read-outs that look alike come from different tables or passages of the source.

Assays:
[1] = biological target: T1, homomeric ASIC1a channels (Homo sapiens, UniProt P78348); type: cell-based
T1 construct: expressed in transfected cells
T1 sequence (P78348 1-528): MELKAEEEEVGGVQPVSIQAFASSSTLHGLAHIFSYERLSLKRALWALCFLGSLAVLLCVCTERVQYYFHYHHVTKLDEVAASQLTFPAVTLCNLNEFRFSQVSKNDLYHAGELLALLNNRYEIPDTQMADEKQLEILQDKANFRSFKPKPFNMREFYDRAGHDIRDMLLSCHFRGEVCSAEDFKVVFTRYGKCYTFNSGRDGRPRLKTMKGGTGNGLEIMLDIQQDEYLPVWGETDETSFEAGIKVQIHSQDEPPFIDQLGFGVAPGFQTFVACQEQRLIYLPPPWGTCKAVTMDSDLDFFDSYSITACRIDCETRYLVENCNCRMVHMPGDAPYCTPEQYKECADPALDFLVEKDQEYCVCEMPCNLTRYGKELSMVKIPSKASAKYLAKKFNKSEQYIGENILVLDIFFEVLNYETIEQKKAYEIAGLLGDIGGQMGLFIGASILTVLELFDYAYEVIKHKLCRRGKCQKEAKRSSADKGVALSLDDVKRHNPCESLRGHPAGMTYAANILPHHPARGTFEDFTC

[2] = test system: mice (depression-like behavior); assay: Tail suspension test; type: in vivo, mouse
Description: This test is performed by the Tennessee Mouse Genome Consortium (tnmouse.org/neuromutagenesis/behavioral). Mice are suspended by the tail from a ledge ˜60 cm from the ground with adhesive tape. Immobility is defined as the absence of movement and is scored over a 6—min trial.

[3] = test system: mice (depression-like behavior); assay: Sucrose preference and chronic (unpredictable) mild stress; type: in vivo, mouse
Description: Sucrose preference is assessed in individually housed, stressed and unstressed mice. Briefly, two bottles (one 8% sucrose and one water) are placed in each cage for 3 d; 2 d to habituate and 1 d to assess sucrose preference. The locations of the bottles are rotated each 24-h period. At the beginning and end of the final 12-h period both bottles are weighed, and sucrose preference is defined as sucrose solution consumed/total liquid consumed×100%. Unstressed mice only undergo the 3 d sucrose preference assessment. Stressed mice also undergo 6 d of unpredictable stressors in the following order: restraint (3 h), wetted bedding (12 h), restraint (3 h), 45° angle cage tilt (12 h), paired housing with an unfamiliar mouse (1 h), exposure to a predator odor (1 h) (trimethylthiazoline, Pherotech International). Sucrose preference is then assessed during the final overnight period as described above.

[4] = test system: primary cultured mouse cortical neurons; settings: pH 6.0, n=7-8
stroke = settings: in vivo; cited from earlier work
[5] = test system: primary cultured mouse cortical neurons; assay: Acidosis-induced neuronal injury, FDA/PI staining; settings: 1 and 10 μM, pH 6.0 for 1.5 h, 24 h
homomeric ASIC3 = biological target: T2, homomeric ASIC3 (Rattus norvegicus, UniProt O35240); assay: Patch-clamp recording of ASIC3 currents in CHO cells with transient expression
T2 sequence (O35240 1-533): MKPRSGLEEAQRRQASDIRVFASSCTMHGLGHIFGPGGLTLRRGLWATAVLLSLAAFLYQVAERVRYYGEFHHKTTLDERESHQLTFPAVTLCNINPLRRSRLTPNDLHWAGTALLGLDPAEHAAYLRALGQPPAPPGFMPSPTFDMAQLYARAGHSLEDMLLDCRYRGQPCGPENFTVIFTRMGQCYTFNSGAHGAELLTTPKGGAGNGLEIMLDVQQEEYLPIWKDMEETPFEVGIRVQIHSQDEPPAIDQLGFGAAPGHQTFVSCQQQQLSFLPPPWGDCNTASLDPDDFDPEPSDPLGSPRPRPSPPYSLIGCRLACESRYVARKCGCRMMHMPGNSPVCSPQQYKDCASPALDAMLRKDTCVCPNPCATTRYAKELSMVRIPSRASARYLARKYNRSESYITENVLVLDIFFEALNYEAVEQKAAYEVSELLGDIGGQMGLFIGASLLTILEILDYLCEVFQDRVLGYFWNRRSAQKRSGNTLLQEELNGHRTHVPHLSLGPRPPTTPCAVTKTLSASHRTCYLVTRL
Description: (§1) Chinese hamster ovary (CHO) cells were cultured in F12-K medium (Invitrogen) plus 10% fetal bovine serum, 50 units/nal penicillin, and 50 μg/m1 streptomycin. At ˜50% confluence, CHO cells were co-transfected with cDNAs for rat ASIC1β, ASIC2a, or ASIC3, and that for GFP. GFP-positive cells were used for electrophysiological recordings 24-72 h after transient transfection.
(§2) ASIC currents were recorded using patch-clamp techniques. Pipette solution contained (mM): 140 CsF, 1 CaCl2, 2 MgCl2, 11 EGTA, 2 tetraethylammonium chloride, 10 HEPES and 4 MgATP, pH 7.3 adjusted with CsOH, 290-300 mOsm. Extracellular Fluid (ECF) contained (mM): 140 NaCl, 5.4 KCl, 2 CaCl2, 1 MgCl2, 10 glucose, and 10 HEPES (320-330 mOsm). A multi-barrel perfusion system (SF-77 Warner Instruments, Hamden, CT) was used to obtain a rapid exchange of ECFs. Currents were recorded with Axopatch 200B amplifier, filtered at 2 kHz, and digitized at 5 kHz using Digidata 1332A. ASIC currents were induced by rapid perfusion of the cells with acidic ECF for 4 seconds. Unless otherwise stated, cells were clamped at a holding potential of −60 mV. […] Data were excluded for statistical analysis when access resistance was >10 MΩ or leak current was >100 pA.
(§3) Therefore, the study used pH 6.0 and 4.5 to activate ASIC1β and ASIC2a currents, respectively. […]

homomeric ASIC2a = biological target: T3, homomeric ASIC2a (Rattus norvegicus, UniProt Q62962); assay: Patch-clamp recording of ASIC2a currents in CHO cells with transient expression; settings: 10 μM, pH drop 7.4 to 4.5, n=4-5
T3 sequence (Q62962 1-512): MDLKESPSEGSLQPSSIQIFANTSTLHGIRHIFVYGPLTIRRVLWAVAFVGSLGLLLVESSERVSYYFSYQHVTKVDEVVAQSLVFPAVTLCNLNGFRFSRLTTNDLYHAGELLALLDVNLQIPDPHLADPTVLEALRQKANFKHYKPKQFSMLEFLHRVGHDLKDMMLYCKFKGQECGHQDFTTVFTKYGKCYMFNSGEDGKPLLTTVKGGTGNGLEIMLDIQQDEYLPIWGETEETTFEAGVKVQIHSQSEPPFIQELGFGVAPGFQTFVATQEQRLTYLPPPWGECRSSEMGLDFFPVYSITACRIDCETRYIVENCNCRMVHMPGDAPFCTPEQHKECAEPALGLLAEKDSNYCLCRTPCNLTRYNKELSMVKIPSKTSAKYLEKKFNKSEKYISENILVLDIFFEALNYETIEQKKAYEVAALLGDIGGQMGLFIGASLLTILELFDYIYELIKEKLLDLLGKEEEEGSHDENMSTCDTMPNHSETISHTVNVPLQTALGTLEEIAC
Description: as §1, §2, §3

[6] = biological target: T4, heteromeric ASIC1a/2a channels (UniProt P78348+Q62962); settings: Triol 10 μM, PcTx-1 insensitive cells, pH 6.0, n=4
T4 sequence (P78348 1-528): T1 sequence (P78348 1-528)
T4 sequence (Q62962 1-512): T3 sequence (Q62962 1-512)
Description: as §2
Only the GFP-positive cells were recorded. The GFP-positive CHO-1a cells may express a mix of homomeric ASIC1a, ASIC2a, or heteromeric ASIC1a/2a channels. Since homomeric ASIC2a channels are not activated at pH 6.0 37, the ASIC currents activated at pH 6.0 might be due to the activation of ASIC1a or ASIC1a/2a channels.

**Q.** What does the source list for CC(C)CCC[C@@H](C)[C@H]1CC[C@H]2[C@@H]3C[C@@H](O)[C@@]4(O)C[C@@H](O)CC[C@]4(C)[C@H]3CC[C@]12C [Triol, cholestane-3β, 5α, 6β-triol]?
**A.** inhibition at 1 µM ([1]; 1 μM Triol, within 5 minutes of application, pH drop 7.4 to 6.0, n=5, read-out: inhibition of ASIC1a currents): ~20%; inhibition at 10 µM ([1]; 10 μM Triol, within 5 minutes of application, pH drop 7.4 to 6.0, n=5, read-out: inhibition of ASIC1a currents): ~40%; inhibition at 10 µM ([1]; 10 μM, once/one min, within 5 min of recording, read-out: inhibition of ASIC current, higher stimulatory frequency): ~40%; inhibition at 10 µM ([1]; 10 μM, once/two min, within 5 min of recording, read-out: inhibition of ASIC1a currents, lower stimulatory frequency): ~20%; reversibility of ASIC1a inhibition ([1]; after 30 min washout (data not shown)): irreversible; depression-like behavior in the tail suspension test [2]: decreased levels of depression-like behavior; depression-like behavior following unpredictable mild stress [3]: decreased levels of depression-like behavior; acid-induced cytotoxicity (LDH release) [4]: significantly decreased; therapeutic time window for stroke treatment (stroke): at least 4 h; death rate of cortical neurons (PI staining) [5]: decrease death rate; survival rate of cortical neurons (FDA staining) [5]: increase survival rate; inhibition at 10 µM (homomeric ASIC3; pH 5.5, read-out: inhibition of ASIC3 peak current component): ~23%; inhibition at 10 µM (homomeric ASIC3; pH 5.5, read-out: inhibition of ASIC3 sustained current component): ~54%; effect on ASIC2a currents (homomeric ASIC2a): no significant effect; effect on PcTx-1 insensitive ASIC currents [6]: inhibited these currents
